Results as given in US8492394B2, “(3-aryl-piperazin-1-yl), (2-aryl-morpholin-4-yl) and (2-aryl-thiomorpholin-4-yl) derivatives of 6,7-dialkoxy-quinazoline, 6,7-dialkoxyphtalazine and 6,7-dialkoxyisoquinoline as PDE10A enzyme inhibitors” (H. Lundbeck A/S, priority 2006, dated 2013).

System: rats
Assay: not given
Conditions: cited from earlier work
In the case of COc1ccc(Cc2nccc3cc(OC)c(OC)cc23)cc1OC [Papaverin], the “reduction of amphetamine induced hyperactivity” value is given as “insignificant”.

System: rats
Assay: not given
Conditions: cited from earlier work
Remark: another data set of the same source
For COc1ccc(Cc2nccc3cc(OC)c(OC)cc23)cc1OC [Papaverin], the “hyperactivity induced by PCP” value is listed as “reduced hyperactivity”.

Target: PDE10A enzyme (Homo sapiens (Human), UniProt Q9Y233)
Sequence (Q9Y233 716-1055): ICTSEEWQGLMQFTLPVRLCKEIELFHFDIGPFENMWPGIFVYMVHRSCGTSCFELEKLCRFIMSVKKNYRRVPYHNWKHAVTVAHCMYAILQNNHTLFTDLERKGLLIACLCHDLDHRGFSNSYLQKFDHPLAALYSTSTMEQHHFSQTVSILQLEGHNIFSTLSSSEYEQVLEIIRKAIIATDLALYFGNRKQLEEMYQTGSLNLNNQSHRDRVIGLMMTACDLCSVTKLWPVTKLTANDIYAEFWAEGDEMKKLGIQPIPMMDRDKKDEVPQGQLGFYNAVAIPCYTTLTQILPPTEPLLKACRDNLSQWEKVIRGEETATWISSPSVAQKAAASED
Assay: PDE10A inhibition assay
Type: biochemical
Conditions: tritium labeled cAMP 5 nM, SPA; read-out: PDE10 IC50
Protocol: Active PDE10A enzyme is prepared in a number of ways for use in PDE assays (Loughney, K. et al. Gene 1999, 234, 109-117; Fujishige, K. et al. Eur J. Biochem. 1999, 266, 1118-1127 and Soderling, S. et al. Proc. Natl. Acad. Sci. 1999, 96, 7071-7076). PDE10A can be expressed as full-length proteins or as truncated proteins, as long as they express the catalytic domain. PDE10A can be prepared in different cell types, for example insect cells or E. coli. An example of a method to obtain catalytically active PDE10A is as follows: The catalytic domain of human PDE10A (amino acids 440-779 from the sequence with accession number NP 006652) is amplified from total human brain total RNA by standard RT-PCR and is cloned into the BamH1 and Xho 1 sites of the pET28a vector (Novagen). Expression in coli is performed according to standard protocols. Briefly, the expression plasmids are transformed into the BL21 (DE3) E. coli strain, and 50 mL cultures inoculated with the cells allowed to grow to an OD600 of 0.4-0.6 before protein expression is induced with 0.5 mM IPTG. Following induction, the cells are incubated overnight at room temperature, after which the cells are collected by centrifugation. Cells expressing PDE10A are resuspended in 12 mL (50 mM TRIS-HCl-pH8.0, 1 mM MgCl2 and protease inhibitors). The cells are lysed by sonication, and after all cells are lysed, TritonX100 is added according to Novagen protocols.
PDE10A assays have been described previously (Loughney, K. et al. Gene 1999, 234, 109-117; Fujishige, K. et al. Eur J Biochem. 1999, 266, 1118-1127 and Soderling, S. et al. Proc. Natl. Acad. Sci. 1999, 96, 7071-7076). PDE10A assays could for example can be performed as follows: PDE10A assays are performed in 60 uL samples containing a fixed amount of the relevant PDE enzyme (sufficient to convert 20-25% of the cyclic nucleotide substrate), a buffer (50 mM HEPES7.6; 10 mM MgCl2; 0.02% Tween20), 0.1 mg/ml BSA, 225 pCi of ^3H-labelled cyclic nucleotide substrate, tritium labeled cAMP to a final concentration of 5 nM and varying amounts of inhibitors. Reactions are initiated by addition of the cyclic nucleotide substrate, and reactions are allowed to proceed for one hr at room temperature before being terminated through mixing with 15 uL 8 mg/mL yttrium silicate SPA beads (Amersham). The beads are allowed to settle for one hr in the dark before the plates are counted in a Wallac 1450 Microbeta counter. The measured signal can be converted to activity relative to an uninhibited control (100%) and IC50 values can be calculated using the Xlfit extension to EXCEL.
Work on COc1cc2ncnc(N3CCNC(c4ccc(N(C)C)cc4)C3)c2cc1OC (centres unmarked) [Compound 14, 4-[3-(4-dimethylaminophenyl)-piperazin-1-yl]-6,7-dimethoxy-quinazoline] yielded an IC50 of 62 nM.
For COc1cc2ncnc(N3CCOC(c4ccccc4Cl)C3)c2cc1OC (centres unmarked) [Compound 13, 6,7-Dimethoxy-4-(2-(2-chlorophenyl)-morpholin-4-yl)-quinazoline], the IC50 was 190 nM.
In the case of COc1cc2ncnc(N3CCOC(c4ccc(F)cc4)C3)c2cc1OC (centres unmarked) [Compound 10, 6,7-Dimethoxy-4-(2-(4-fluorophenyl)-morpholin-4-yl)-quinazoline], the IC50 is reported as 200 nM.
COc1cc2ncnc(N3CCOC(c4ccc(C(F)(F)F)cc4)C3)c2cc1OC (centres unmarked) [Compound 12, 6,7-Dimethoxy-4-(2-(4-trifluomethylphenyl)-morpholin-4-yl)-quinazoline] showed an IC50 of 660 nM.
COc1cc2ncnc(N3CCSC(c4ccccc4)C3)c2cc1OC (centres unmarked) [Compound 1, 6,7-Dimethoxy-4-(2-phenyl-thiomorpholin-4-yl)-quinazoline] showed an IC50 of 89 nM.
In the case of COc1cccc([C@H]2CN(c3ncnc4cc(OC)c(OC)cc34)CCN2)c1 [Compound 5, 6,7-Dimethoxy-4-((S)-3-(3-methoxyphenyl)-piperazin-1-yl)-quinazoline], the IC50 is reported as 14 nM.
Compound COc1cc2ncnc(N3CCN[C@H](c4ccccc4)C3)c2cc1OC [Compound 6, 6,7-Dimethoxy-4-((R)-3-phenyl-piperazin-1-yl)-quinazoline] has an IC50 of 65 nM.
COc1cccc([C@@H]2CN(c3ncnc4cc(OC)c(OC)cc34)CCN2)c1 [Compound 4, 6,7-Dimethoxy-4-((R)-3-(3-methoxyphenyl)-piperazin-1-yl)-quinazoline] showed an IC50 of 600 nM.
Work on COc1cc2ncnc(N3CCOC(c4ccc(C)cc4)C3)c2cc1OC (centres unmarked) [Compound 3, 6,7-Dimethoxy-4-(2-(4-methylphenyl)-morpholin-4-yl)-quinazoline] yielded an IC50 of 79 nM.
In the case of COc1cc2ncnc(N3CCNC(c4cc(Cl)ccc4Cl)C3)c2cc1OC (centres unmarked) [Compound 16, 4-[3-(2,5-dichlorophenyl)-piperazin-1-yl]-6,7-dimethoxy-quinazoline], the IC50 is reported as 170 nM.
With COc1cc2ncnc(N3CCOC(c4ccc(Cl)cc4)C3)c2cc1OC (centres unmarked) [Compound 11, 6,7-Dimethoxy-4-(2-(4-chlorophenyl)-morpholin-4-yl)-quinazoline] the IC50 was 260 nM.
Compound COc1cc2ncnc(N3CCNC(c4cc(OC)c(OC)c(OC)c4)C3)c2cc1OC (centres unmarked) [Compound 8, 4-[3-(3,4,5-trimethoxyphenyl)-piperazin-1-yl]-6,7-dimethoxy-quinazoline] has an IC50 of 180 nM.
COc1cc2ncnc(N3CCNC(c4ccccc4OC)C3)c2cc1OC (centres unmarked) [Compound 9, 4-[3-(2-methoxyphenyl)-piperazin-1-yl]-6,7-dimethoxy-quinazoline] gave an IC50 of 110 nM.
In the case of COc1cc2ncnc(N3CCNC(c4ccc5c(c4)OCO5)C3)c2cc1OC (centres unmarked) [Compound 15, 4-[3-(3,4-methylenedioxyphenyl)-piperazin-1-yl]-6,7-dimethoxy-quinazoline], the IC50 is reported as 35 nM.
Compound COc1cc2ncnc(N3CCN[C@@H](c4ccccc4)C3)c2cc1OC [Compound 7, 6,7-Dimethoxy-4-((S)-3-phenyl-piperazin-1-yl)-quinazoline] has an IC50 of 90 nM.
For COc1cccc(C2CN(c3ncnc4cc(OC)c(OC)cc34)CCN2)c1 (centres unmarked) [Compound 2, 6,7-Dimethoxy-4-(3-(3-methoxyphenyl)-piperazin-1-yl)-quinazoline], the IC50 was 33 nM.

System: rats
Assay: not given
Conditions: alone; cited from earlier work
For COc1ccc(Cc2nccc3cc(OC)c(OC)cc23)cc1OC [Papaverin], the “catalepsy on its own” value is given as “did not cause catalepsy on its own”.

Same assay, conditions: with the D2 receptor antagonist haloperidol; cited from earlier work
For COc1ccc(Cc2nccc3cc(OC)c(OC)cc23)cc1OC [Papaverin], the “cataleptic effect of haloperidol” value is listed as “potentiated the cataleptic effect”.
